# In paper PMC8765781, “A platform of assays for the discovery of anti-Zika small-molecules with activity in a 3D-bioprinted outer-blood-retina model” (PLoS ONE, 2022):
# Like-named read-outs stand apart in the source and are kept apart here.
# Legend:
# in vitro [1] = details: human
# in vitro [2] = details: African green monkey; for CC50 at 48 h: Vero cells
# [3] = test system: wild-type ZIKV (Ugandan MR766 strain) in Vero cells; assay: ZIKV cytopathic effect (CPE) inhibition qHTS assay, CellTiter-Glo readout; assay type: cell-based, Zika virus; details: for IC50: 48 h, read-out: ZIKV-infection (CPE, ZIKV Antiviral Assays), IC50
# [4] = test system: ZIKV-mCherry (Cambodian strain FSS13025); assay: microbe, parasite or virus in culture; assay type: cell-based, Zika virus; details: for AC50: Zika virus, Vero
# in vitro [5] = details: human; remark: listed apart in the source
# [6] = test system: mCherry-ZIKV in human neuronal progenitor cells; assay: microbe, parasite or virus in culture; assay type: cell-based, Zika virus; details: for AC50 / IC50: Zika virus, Neuronal progenitor cell; for IC50: read-out: NPC (ZIKV Antiviral Assays), IC50
# [7] = test system: caspase-3 activity induced by ZIKV in Vero cells; assay: cells; assay type: cell-based; details: Zika virus, Vero, 48 h, read-out: Caspase 3 (ZIKV Antiviral Assays), IC50
# [8] = test system: ZIKV-RLuc (Cambodian strain FSS13025); assay: microbe, parasite or virus in culture; assay type: cell-based, Zika virus; details: for IC50 / AC50: Zika virus, Vero; for IC50: 48 h, read-out: Rluc-ZIKV (ZIKV Antiviral Assays), IC50
# [9] = test system: DENV (Dengue virus type 2, strain New Guinea C)
# [10] = Zika virus, Vero, read-out: Log AC50 (M) (converted)
# [11] = read-out: Log AC50 (M) (converted)
SMILES,CC50 at 48 h (in vitro [2]) [µM],Efficacy [3],"AC50 ([3]; Zika virus, Vero) [M]","IC50 ([3]; Zika virus, Vero) [µM]","AC50 [3, 10] [M]",CC-v2 (curve class of the dose response curve) [4],Efficacy (difference between neutral response and maximum compound response) [4],Max Resp (difference between neutral response and response at highest compound concentration) [4],AC50 [4] [M],"AC50 [4, 11] [M]",CC50 (in vitro [5]) [µM],CC-v2 (curve class) [6],Efficacy [6],Max Resp [6],IC50 [6] [µM],IC50 [7] [µM],IC50 [8] [µM],DENV active Yes/No [9],WHV active Yes/No (WNV (Kern515/WN02)),YFV active Yes/No (YFV (YFV 17D)),also measured
"Nc1ccn([C@@H]2O[C@H](CO)[C@@H](O)C2(F)F)c(=O)n1 [NCGC00168784-08, gemcitabine, reference compound]",> 50,-24.938,9.2e-06,9.2,9.2e-06,-1.2,-61.697,-99.896,2.67e-09,2.67e-09,> 30,-1.2,-65.573,-52.766,6.31,> 48,0.02,–,–,–,"CC50 at 24 h (in vitro [1]): 16.3 µM; Antiviral activity in human NPC [6]: moderate antiviral activity; AC50 [6]: 6.31e-06 M; AC50 [6, 11]: 6.31e-06 M"
C=C1CCC2[C@](C)(CCC[C@]2(C)C(=O)O)[C@H]1CC/C(C)=C/C(=O)OC (stereo partly drawn) [NCGC00168922-02],> 50,-63.179,4.04e-07,0.4,4.04e-07,-1.4,-50.999,-55.843,–,–,> 30,4,-21.467,-17.835,11.2,7.24,0.07,No,No,No,CC50 at 24 h (in vitro [1]): 13.3 µM; ZIKV active Yes/No (ZIKV): No
CCC[S+](=O)([O-])Nc1ccc(F)c(C(=O)c2c[nH]c3ncc(-c4ccc(Cl)cc4)cc23)c1F [NCGC00250399-05],–,-40.165,1.46e-06,1.46,1.46e-06,5,0,-69.344,–,–,–,4,-22.524,-6.687,35.5,8.31,9.28,Yes,No,No,SI value DENV (CC50/EC50) [9]: 4.3; Selectivity Index DENV (CC50/EC50) [9]: 4; CC50 (in vitro [1]): > 30 µM; SI value WHV (CC50/EC50) (WNV (Kern515/WN02)): 2; Selectivity Index WHV (CC50/EC50) (WNV (Kern515/WN02)): 2; CC50 (in vitro [2]): > 50 µM; SI value ZIKV (CC50/EC50) (ZIKV): 14; Selectivity Index ZIKV (CC50/EC50) (ZIKV): 14; ZIKV active Yes/No (ZIKV): Yes
COc1cccc(-n2nc(C(=O)O)cc2-c2ccc(C3CCCCC3)c(Cl)c2)c1 [NCGC00379183-01],> 50,-41.012,2.91e-05,29.1,2.91e-05,5,-42.035,-100.305,1.68e-05,1.68e-05,25.1,-3,-112.723,-95.876,–,26.3,18.5,–,–,–,"CC-v2 (curve class classification of the dose response curve) [3]: -3; AC50 [6]: 5.01e-05 M; AC50 [6, 11]: 5.01e-05 M"
CC1(C)CC2C(O)C3=C(CC(C)(O)C2C1)C(=O)OC3 (stereo not drawn) [NCGC00385131-01],> 50,-83.269,2.31e-05,23.1,–,-1.2,-69.698,-44.202,2.67e-09,2.67e-09,> 30,–,–,–,–,8.31,0.02,No,No,No,"Curve class [3]: -3; AC50 ([3]; Zika virus, Vero, read-out: Log AC50 (converted)): 2.31e-05 M; Emax ([3]; Zika virus, Vero, read-out: Max response): 3.01%; ZIKV active Yes/No (ZIKV): No"
CC(=O)OC[C@]12[C@H](OC(C)=O)C(=O)[C@@H]3[C@@H](O)[C@@]14O[C@@]3(C)COC(=O)c1cccnc1[C@@H](C)[C@H](C)C(=O)O[C@@H]([C@H](OC(C)=O)[C@@H]2OC(C)=O)[C@]4(C)O [NCGC00385298-01],–,-97.679,1.72e-05,17.2,1.72e-05,-1.3,-66.581,-100.048,3.53e-06,3.53e-06,> 30,–,–,–,–,9.86,9.81,–,–,–,"CC50 (in vitro [2]): > 50 µM; CC-v2 (curve class classification of the dose response curve) [3]: -2.1; AC50 (Vero cells): 9.81 µM; Log AC50 (M) (Vero cells): -5.0083 M; CC-v2 (curve class classification v2 of the dose response curve) [8]: -2.3; Efficacy (difference between neutral response and maximum compound response) [8]: -117.521; Max Resp (difference between neutral response and compound response for highest compound concentration) [8]: -98.025; AC50 [8]: 9.81e-06 M; AC50 [8, 11]: 9.81e-06 M"
OC1C=C2C3CN(Cc4cc5c(cc43)OCO5)C2CC1O (stereo not drawn) [NCGC00385948-01],–,-79.681,2.59e-05,–,2.59e-05,-1.2,-44.826,-97.729,2.67e-06,2.67e-06,–,-1.2,-64.358,-62.953,10,4.17,9.28,Yes,Yes,No,"Activity against DENV [9]: active against DENV; SI value DENV (CC50/EC50) [9]: 16; Selectivity Index DENV (CC50/EC50) [9]: 16; CC50 (in vitro [1]): > 30 µM; Activity against WNV (WNV (Kern515/WN02)): weaker against WNV and ZIKV; SI value WHV (CC50/EC50) (WNV (Kern515/WN02)): 7.6; Selectivity Index WHV (CC50/EC50) (WNV (Kern515/WN02)): 8; CC50 (in vitro [2]): > 50 µM; CC-v2 (curve class classification of the dose response curve) [3]: -2.2; Antiviral activity in human NPC [6]: effectively inhibited ZIKV in NPC cells; AC50 [6]: 1e-05 M; AC50 [6, 11]: 1e-05 M; Activity against ZIKV (ZIKV): weaker against WNV and ZIKV; SI value ZIKV (CC50/EC50) (ZIKV): 4.7; Selectivity Index ZIKV (CC50/EC50) (ZIKV): 5; ZIKV active Yes/No (ZIKV): Yes"
CC(C)(C#N)c1ccc(N2C(=O)OCc3cnc4ccc(-c5cnc6ccccc6c5)cc4c32)cc1 [NCGC00386292-05],> 50,-23.858,4.61e-06,4.61,4.61e-06,-1.2,-67.723,-93.524,5.32e-07,5.32e-07,–,–,-38.419,3.825,25.1,0.04,2.93,No,No,No,"CC50 at 24 h (in vitro [1]): > 30 µM; Antiviral activity in human NPC [6]: moderate antiviral activity; AC50 [6]: 2.51e-05 M; AC50 [6, 11]: 2.51e-05 M; SI value ZIKV (CC50/EC50) (ZIKV): 3; Selectivity Index ZIKV (CC50/EC50) (ZIKV): 3; ZIKV active Yes/No (ZIKV): Yes"
C=C(F)c1sc(CNCCCNc2cc(=O)c3ccccc3[nH]2)c(C)c1Br [NCGC00386616-01],> 50,-30.953,2.06e-05,20.6,2.06e-05,-1.4,-70.696,-94.173,–,–,–,-2.2,-88.323,-56.18,39.8,1.05,8.27,No,No,No,"CC50 at 24 h (in vitro [1]): > 30 µM; Antiviral activity in human NPC [6]: moderate antiviral activity; AC50 [6]: 3.98e-05 M; AC50 [6, 11]: 3.98e-05 M; ZIKV active Yes/No (ZIKV): No"
CN[C@H](CC(C)C)C(=O)N[C@H]1C(=O)N[C@@H](CC(N)=O)C(=O)N[C@H]2C(=O)N[C@H]3C(=O)N[C@H](C(=O)N[C@H](C(=O)O)c4cc(O)cc(O)c4-c4cc3ccc4O)[C@H](O[C@H]3C[C@](C)(N)[C@@H](O)[C@H](C)O3)c3ccc(c(Cl)c3)Oc3cc2cc(c3O[C@@H]2O[C@H](CO)[C@@H](O)[C@H](O)[C@H]2O[C@H]2C[C@](C)(NCc3ccc(-c4ccc(Cl)cc4)cc3)[C@@H](O)[C@H](C)O2)Oc2ccc(cc2Cl)[C@H]1O [NCGC00485478-01],–,-25.057,1.37e-05,13.7,1.37e-05,4,0,-93.894,–,–,> 30,–,–,–,–,> 48,12.3,–,–,–,CC50 (in vitro [2]): > 50 µM
